Assay results as given in patent publication US20230159597A1 (priority 2020, published 2023).
[ ]: non-standard residue; d: D form. The star is where a group is joined. X1 = CC(C)CCC[C@@H](C)[C@H]1CC[C@H]2[C@@H]3CC=C4C[C@@H](OC(=O)C*)CC[C@]4(C)[C@H]3CC[C@]12C; PEG4 = NCCOCCOCCOCCOCCC(=O)O

Legend:
[1] = molecular target: SARS CoV-2 glycoprotein (Severe acute respiratory syndrome coronavirus 2, UniProt P0DTC2); assay: cell-based
[2] = tested on: SARS-CoV-2; format: cell-based
[3] = tested on: ZEBOV Mayinga
[4] = tested on: ZEBOV Gueckedou C07
[5] = tested on: Bundibugyo EBOV

Molecule	IC90 [1]	reduction in SARS-CoV-2 infection [2]	IC50 [3]	Max % inh [3]	IC50 [4]	Max % inh [4]	IC50 [5]	Max % inh [5]
Ac-SLTQINTTLLNLEYEMKKLEEVVKKLEESYIDLKELGSG[PEG4]C(X1)-NH2 [MERS lipid-peptide]	200 nM	100%	–	–	–	–	–	–
CC[C@H](C)[C@H](NC(=O)CNC(=O)[C@H](CO)NC(=O)CNC(=O)[C@H](CCCNC(=N)N)NC(=O)[C@H](CCCNC(=N)N)NC(=O)[C@H](CCCNC(=N)N)NC(=O)[C@H](CCC(N)=O)NC(=O)[C@H](CCCNC(=N)N)NC(=O)[C@H](CCCNC(=N)N)NC(=O)[C@H](CCCCN)NC(=O)[C@H](CCCCN)NC(=O)[C@H](CCCNC(=N)N)NC(=O)CNC(=O)[C@H](Cc1ccc(O)cc1)NC(C)=O)C(=O)N[C@@H](CCC(=O)O)C(=O)N1CCC[C@H]1C(=O)N[C@@H](Cc1c[nH]cn1)C(=O)N[C@@H](CC(=O)O)C(=O)N[C@@H](Cc1c[nH]c2ccccc12)C(=O)N[C@H](C(=O)N[C@@H](CCCCN)C(=O)N[C@@H](CC(N)=O)C(=O)N[C@H](C(=O)N[C@H](C(=O)N[C@@H](CC(=O)O)C(=O)N[C@@H](CCCCN)C(=O)N[C@H](C(=O)N[C@@H](CC(=O)O)C(=O)N[C@@H](CCC(N)=O)C(=O)N[C@H](C(=O)N[C@H](C(=O)N[C@@H](Cc1c[nH]cn1)C(=O)N[C@@H](CC(=O)O)C(=O)N[C@@H](Cc1ccccc1)C(=O)N[C@H](C(=O)N[C@@H](CC(=O)O)C(=O)N[C@@H](CCCCN)C(=O)NCC(=O)N[C@@H](CO)C(=O)NCC(=O)N[C@@H](CO)C(=O)NCC(=O)N[C@@H](CSCC(=O)NCCOCCOCCOCCOCCC(=O)Oc1c(C)c(C)c2c(c1C)CC[C@@](C)(CCC[C@H](C)CCC[C@H](C)CCCC(C)C)O2)C(N)=O)C(C)C)[C@@H](C)CC)[C@@H](C)CC)[C@@H](C)CC)[C@@H](C)O)[C@@H](C)CC)[C@@H](C)O [TAT-EBO-PEG4-Toco]	–	–	700 nM	96.9%	100 nM	100%	310 nM	100%
CC[C@H](C)[C@H](NC(=O)CNC(=O)[C@H](CO)NC(=O)CNC(=O)[C@H](CCCNC(=N)N)NC(=O)[C@H](CCCNC(=N)N)NC(=O)[C@H](CCCNC(=N)N)NC(=O)[C@H](CCC(N)=O)NC(=O)[C@H](CCCNC(=N)N)NC(=O)[C@H](CCCNC(=N)N)NC(=O)[C@H](CCCCN)NC(=O)[C@H](CCCCN)NC(=O)[C@H](CCCNC(=N)N)NC(=O)CNC(=O)[C@H](Cc1ccc(O)cc1)NC(C)=O)C(=O)N[C@@H](CCC(=O)O)C(=O)N1CCC[C@H]1C(=O)N[C@@H](Cc1c[nH]cn1)C(=O)N[C@@H](CC(=O)O)C(=O)N[C@@H](Cc1c[nH]c2ccccc12)C(=O)N[C@H](C(=O)N[C@@H](CCCCN)C(=O)N[C@@H](CC(N)=O)C(=O)N[C@H](C(=O)N[C@H](C(=O)N[C@@H](CC(=O)O)C(=O)N[C@@H](CCCCN)C(=O)N[C@H](C(=O)N[C@@H](CC(=O)O)C(=O)N[C@@H](CCC(N)=O)C(=O)N[C@H](C(=O)N[C@H](C(=O)N[C@@H](Cc1c[nH]cn1)C(=O)N[C@@H](CC(=O)O)C(=O)N[C@@H](Cc1ccccc1)C(=O)N[C@H](C(=O)N[C@@H](CC(=O)O)C(=O)N[C@@H](CCCCN)C(=O)NCC(=O)N[C@@H](CO)C(=O)NCC(=O)N[C@@H](CO)C(=O)NCC(=O)N[C@@H](CSCC(=O)NCCOCCOCCOCCOCCC(=O)O[C@H]1CC[C@@]2(C)C(=CC[C@H]3[C@@H]4CC[C@H]([C@H](C)CCCC(C)C)[C@@]4(C)CC[C@@H]32)C1)C(N)=O)C(C)C)[C@@H](C)CC)[C@@H](C)CC)[C@@H](C)CC)[C@@H](C)O)[C@@H](C)CC)[C@@H](C)O [TAT-EBO-PEG4-Chol]	–	–	50 nM	97.9%	20 nM	97.5%	70 nM	98.5%
